Data as given in patent US8778937B2, “Benzimidazole boronic acid derivatives as PI3 kinase inhibitors” (GlaxoSmithKline LLC, priority 2011, dated 2014).

What follows are molecules tested against T1, PI3Kβ (Homo sapiens, UniProt P42338) (assay: HTRF in vitro profiling assay for PI3K inhibition (beta isoform)). Conditions: 200 pM enzyme, 100 uM ATP, 10 uM PIP2, 150 mM NaCl, corrected pIC50, single run or average of two or more runs, read-out: PI3K b pIC50 (converted).
T1 construct: made in house
Assay type: biochemical
Procedure: Compounds of the present invention were tested according to the following assays and found as inhibitors of PI3 kinases, particularly PI3Kβ. […] The IC50 value can be converted and presented as pIC50 value.
HTRF In Vitro Profiling Assays for PI3K Inhibition
The PI3-Kinase profiling assays were developed to measure the compound-dependent inhibition of the alpha, beta, delta, and gamma isoforms of PI3K in an in vitro catalytic assay. This assay was developed and optimized from a kit produced by Upstate (Millipore catalog #33-017). Briefly, this procedure utilizes a pre-formed HTRF (Homogeneous Time-Resolved Fluorescence energy transfer) complex between four binding partners: 1) biotinylated PIP3, 2) GST tagged pleckstrin homology (PH) domain, 3) Europium labeled anti-GST monoclonal antibody, and 4) Streptavidin-Allophycocyanin (APC). The native PIP3 produced by PI 3-Kinase activity displaces biotin-PIP3 from the PH domain, resulting in the dissociation of the HTRF complex and a decrease in the fluorescence signal. The format of this assay is the same for all 4 isoforms of PI3K; the differences lie in the concentration of enzyme used to achieve the most robust signal. The alpha and delta assays are run at 400 pM enzyme; the beta assay is at 200 pM enzyme and the gamma assay is run at 1 nM enzyme. In addition, the alpha, beta and delta assays are run with 150 mM NaCl while the gamma assay is run in the absence of NaCl. The ATP concentration is 100 uM in the alpha, beta, and delta assays and 15 uM ATP in the gamma assay. All reactions are run at 10 uM PIP2
Compounds were serially diluted (3-fold in 100% DMSO) across a 384-well polypropylene mother plate from column 1 to column 12 and column 13 to column 24, to yield 11 concentrations for each test compound. Columns 6 and 18 contain only DMSO. Once titrations were made, 0.05 μL was transferred to a 384-well low-volume assay plate (Greiner 784076). This assay plate contained three pharmacological controls (known PI3K inhibitors) and 3 assay controls: (1) Enzyme without inhibitor; (2) Buffer minus enzyme, and (3) Buffer minus enzyme plus native PIP3. DMSO was stamped into all wells of columns 6 and 18. PIP3 was added at 40 μM in 1× Reaction buffer (1 μL of 200 μM PIP3) to alternating rows of column 18 (wells 18 B, D, F, H, J, L, N, P). The no-enzyme control reactions were run in wells 18 A, C, E, G, I, K, M, O (0.1 μL of 100% DMSO).
The PI3-Kinase profiling assay was optimized using the HTRF kit provided by Upstate (Millipore). The assay kit contained seven reagents: 1) 4× Reaction Buffer; 2) native PIP2 (substrate); 3) Stop A (EDTA); 4) Stop B (Biotin-PIP3); 5) Detection Mix A (Streptavidin-APC); 6) Detection Mix B (Eu-labeled Anti-GST plus GST-tagged PH-domain); 7) Detection Mix C (KF). In addition, the following items were obtained or purchased: PI3Kinase (prepared by GSK BR&AD), dithiothreitol (Sigma, D-5545), Adenosine-5′-triphosphate (ATP, Teknova cat. # A0220), native PIP3 (1,2-dioctanoyl-sn-glycero-3-[phosphoinositil-3,4,5-triphosphate]tetraammonium salt (Avanti polar lipids, 850186P), DMSO (Sigma, 472301).
PI3Kinase Reaction Buffer was prepared by diluting the stock 1:4 with de-ionized water. Freshly prepared DTT was added at a final concentration of 5 mM on the day of use. Enzyme addition and compound pre-incubation were initiated by the addition of 2.5 μL of PI3K (at twice its final concentration) in 1× reaction buffer to all wells using a Multidrop Combi. Plates were incubated at room temperature for 15 minutes. Reactions were initiated by addition of 2.5 μL of 2× substrate solution (PIP2 and ATP in 1× reaction buffer) using a Multidrop Combi. Plates were incubated at room temperature for one hour. Reactions were quenched by the addition of 2.5 μL of stop solution (Stop A and Stop B pre-mixed at a ratio of 5:1, respectively) to all wells using the Multidrop Combi. […]

T1 sequence (P42338 whole entry, canonical isoform): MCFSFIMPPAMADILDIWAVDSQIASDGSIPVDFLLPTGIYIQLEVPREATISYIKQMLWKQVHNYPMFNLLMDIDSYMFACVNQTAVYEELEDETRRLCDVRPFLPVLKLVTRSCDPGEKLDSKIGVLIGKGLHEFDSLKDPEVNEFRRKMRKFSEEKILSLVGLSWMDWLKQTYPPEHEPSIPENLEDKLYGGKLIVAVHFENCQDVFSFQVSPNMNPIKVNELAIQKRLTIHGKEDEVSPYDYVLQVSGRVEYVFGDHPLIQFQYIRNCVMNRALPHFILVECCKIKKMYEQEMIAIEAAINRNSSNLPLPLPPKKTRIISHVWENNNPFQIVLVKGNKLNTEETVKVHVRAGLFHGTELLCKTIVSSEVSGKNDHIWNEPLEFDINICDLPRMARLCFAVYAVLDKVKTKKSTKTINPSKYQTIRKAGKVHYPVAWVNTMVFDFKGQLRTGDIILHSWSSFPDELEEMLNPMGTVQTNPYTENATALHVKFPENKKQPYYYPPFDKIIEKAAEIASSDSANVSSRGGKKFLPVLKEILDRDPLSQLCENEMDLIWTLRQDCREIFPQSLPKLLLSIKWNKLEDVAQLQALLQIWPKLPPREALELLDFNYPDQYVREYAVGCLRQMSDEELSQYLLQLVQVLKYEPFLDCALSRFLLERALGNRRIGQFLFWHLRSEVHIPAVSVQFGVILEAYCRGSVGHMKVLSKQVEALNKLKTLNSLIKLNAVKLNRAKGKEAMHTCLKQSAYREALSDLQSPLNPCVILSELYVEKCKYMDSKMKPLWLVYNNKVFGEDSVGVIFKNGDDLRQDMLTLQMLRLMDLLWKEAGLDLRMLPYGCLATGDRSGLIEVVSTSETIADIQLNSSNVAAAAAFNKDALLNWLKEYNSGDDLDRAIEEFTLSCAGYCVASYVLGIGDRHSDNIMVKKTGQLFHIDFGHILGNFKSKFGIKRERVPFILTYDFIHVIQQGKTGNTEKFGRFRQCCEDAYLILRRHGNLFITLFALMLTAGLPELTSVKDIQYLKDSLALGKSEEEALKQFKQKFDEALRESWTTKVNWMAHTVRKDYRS
T1 sequence (P27986 whole entry partner, canonical isoform): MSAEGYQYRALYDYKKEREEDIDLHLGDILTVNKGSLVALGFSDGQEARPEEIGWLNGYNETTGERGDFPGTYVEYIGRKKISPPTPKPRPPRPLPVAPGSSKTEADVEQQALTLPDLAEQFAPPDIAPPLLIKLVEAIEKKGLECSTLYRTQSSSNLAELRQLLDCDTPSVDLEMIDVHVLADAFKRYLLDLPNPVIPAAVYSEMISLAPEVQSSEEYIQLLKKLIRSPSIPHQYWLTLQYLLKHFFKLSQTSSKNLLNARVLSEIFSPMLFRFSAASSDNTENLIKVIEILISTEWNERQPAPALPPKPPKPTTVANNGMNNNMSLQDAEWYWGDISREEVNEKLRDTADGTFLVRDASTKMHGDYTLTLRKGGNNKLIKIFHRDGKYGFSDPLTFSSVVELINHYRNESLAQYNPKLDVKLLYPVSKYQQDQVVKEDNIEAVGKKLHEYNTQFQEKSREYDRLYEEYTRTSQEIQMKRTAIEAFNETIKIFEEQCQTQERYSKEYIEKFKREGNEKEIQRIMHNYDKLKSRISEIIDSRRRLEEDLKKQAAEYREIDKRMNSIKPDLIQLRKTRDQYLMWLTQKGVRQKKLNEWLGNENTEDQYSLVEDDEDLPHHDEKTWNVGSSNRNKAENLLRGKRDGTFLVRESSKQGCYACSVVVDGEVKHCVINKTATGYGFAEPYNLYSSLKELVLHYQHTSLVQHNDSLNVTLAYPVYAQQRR

Going from `Cc1c(Cn2c(CF)nc3c(B(O)O)cc(N4CCOCC4)cc32)cccc1C(F)(F)F` [Example 16, (2-(fluoromethyl)-1-(2-methyl-3-(trifluoromethyl)benzyl)-6-morpholino-1H-benzo[d]imidazol-4-yl)boronic acid] to `Cc1c(Cn2c(CO)nc3c(B(O)O)cc(N4CCOCC4)cc32)cccc1C(F)(F)F` [Example 18, (2-(hydroxymethyl)-1-(2-methyl-3-(trifluoromethyl)benzyl)-6-morpholino-1H-benzo[d]imidazol-4-yl)boronic acid], the IC50 rises from 0.0631 nM to 0.2 nM (3.2-fold).

Going from `Cc1c(Cn2c(C3CC3)nc3c(B(O)O)cc(N4CCOCC4)cc32)cccc1C(F)(F)F` [Example 23, (2-cyclopropyl-1-(2-methyl-3-(trifluoromethyl)benzyl)-6-morpholino-1H-benzo[d]imidazol-4-yl)boronic acid] to `Cc1c(Cn2c(C)nc3c(B(O)O)cc(N4CCOCC4)cc32)cccc1C(F)(F)F` [Example 4, (2-methyl-1-(2-methyl-3-(trifluoromethyl)benzyl)-6-morpholino-1H-benzo[d]imidazol-4-yl)boronic acid], the IC50 falls from 1.26 nM to 0.398 nM (3.2-fold).

`Cc1cccc(Cn2c(C)nc3c(B(O)O)cc(N4CCOCC4)cc32)c1` [Example 10, (2-methyl-1-(3-methylbenzyl)-6-morpholino-1H-benzo[d]imidazol-4-yl)boronic acid] and `Cc1nc2c(B(O)O)cc(N3CCOCC3)cc2n1Cc1cccc(Cl)c1` [Example 13, (1-(3-chlorobenzyl)-2-methyl-6-morpholino-1H-benzo[d]imidazol-4-yl)boronic acid] are the same in IC50: 63.1 nM for the first, 63.1 nM for the second.

First: Cc1nc2c(B(O)O)cc(N3CCOCC3)cc2n1Cc1cccc2ccccc12 [Example 6, (2-methyl-6-morpholino-1-(naphthalen-1-ylmethyl)-1H-benzo[d]imidazol-4-yl)boronic acid]
Second: Cc1nc2c(B(O)O)cc(N3CCOCC3)cc2n1Cc1ccccc1Cl [Example 12, (1-(2-chlorobenzyl)-2-methyl-6-morpholino-1H-benzo[d]imidazol-4-yl)boronic acid]
The IC50 of the first is 79-fold lower: 0.501 nM for the first, 39.8 nM for the second.

First: Cc1nc2c(B(O)O)cc(N3CCOCC3)cc2n1Cc1cccc2ccsc12 [Example 9]
Second: Cc1cccc(Cn2c(C)nc3c(B(O)O)cc(N4CCOCC4)cc32)c1C [Example 7, (1-(2,3-dimethylbenzyl)-2-methyl-6-morpholino-1H-benzo[d]imidazol-4-yl)boronic acid]
The IC50 of the first is 2.5-fold higher: 1.26 nM for the first, 0.501 nM for the second.

`Cc1c(Cl)cccc1Cn1cnc2c(B(O)O)cc(N3CCOCC3)cc21` [Example 15, (1-(3-chloro-2-methylbenzyl)-6-morpholino-1H-benzo[d]imidazol-4-yl)boronic acid] and `Cc1c(Cn2cnc3c(B(O)O)cc(N4CCOCC4)cc32)cccc1C(F)(F)F` [Example 14, (1-(2-methyl-3-(trifluoromethyl)benzyl)-6-morpholino-1H-benzo[d]imidazol-4-yl)boronic acid] are within 1.5-fold of each other in IC50: 1.26 nM for the first, 1.58 nM for the second.

Going from `Cc1c(Cl)cccc1Cn1c(C)nc2c(B(O)O)cc(N3CCOCC3)cc21` [Example 5, (1-(3-chloro-2-methylbenzyl)-2-methyl-6-morpholino-1H-benzo[d]imidazol-4-yl)boronic acid] to `Cc1nc2c(B(O)O)cc(N3CCOCC3)cc2n1Cc1cccc(Cl)c1Cl` [Example 8, (1-(2,3-dichlorobenzyl)-2-methyl-6-morpholino-1H-benzo[d]imidazol-4-yl)boronic acid], the IC50 rises from 0.2 nM to 0.501 nM (2.5-fold).

`Cc1c(Cl)cccc1Cn1c(CF)nc2c(B(O)O)cc(N3CCOCC3)cc21` [Example 17, (1-(3-chloro-2-methylbenzyl)-2-(fluoromethyl)-6-morpholino-1H-benzo[d]imidazol-4-yl)boronic acid] and `Cc1c(Cl)cccc1Cn1c(C(F)F)nc2c(B(O)O)cc(N3CCOCC3)cc21` [Example 19, (1-(3-chloro-2-methylbenzyl)-2-(difluoromethyl)-6-morpholino-1H-benzo[d]imidazol-4-yl)boronic acid] are within 1.5-fold of each other in IC50: 0.0631 nM for the first, 0.0794 nM for the second.

Going from `Cc1c(Cn2c(C(F)F)nc3c(B(O)O)cc(N4CCOCC4)cc32)cccc1C(F)(F)F` [Example 20, (2-(difluoromethyl)-1-(2-methyl-3-(trifluoromethyl)benzyl)-6-morpholino-1H-benzo[d]imidazol-4-yl)boronic acid] to `Cc1c(Cn2c(C(C)C)nc3c(B(O)O)cc(N4CCOCC4)cc32)cccc1C(F)(F)F` [Example 22, (2-isopropyl-1-(2-methyl-3-(trifluoromethyl)benzyl)-6-morpholino-1H-benzo[d]imidazol-4-yl)boronic acid], the IC50 rises from 0.126 nM to 3.16 nM (25-fold).

Compared with `Cc1ccccc1Cn1c(C)nc2c(B(O)O)cc(N3CCOCC3)cc21` [Example 11, (2-methyl-1-(2-methylbenzyl)-6-morpholino-1H-benzo[d]imidazol-4-yl)boronic acid], `Cc1c(Cl)cccc1Cn1c(C(F)(F)F)nc2c(B(O)O)cc(N3CCOCC3)cc21` [Example 21, (1-(3-chloro-2-methylbenzyl)-6-morpholino-2-(trifluoromethyl)-1H-benzo[d]imidazol-4-yl)boronic acid] is 130-fold lower in IC50: 10 nM for the first, 0.0794 nM for the second.
